According to US5712300A, “Hydroxamic acid derivatives useful for the treatment of diseases related to connective tissue degradation” (priority 1997, dated 1998):

Experiments:
Assay type in all cases: biochemical
[1] = target: Stromelysin (Homo sapiens, UniProt P08254); test: MMP inhibition by particle concentration fluorescence technique (stromelysin); details: pH 7.5; 15 min enzyme preincubation; substrate 1-3 h at room temperature; read-out: MMP Inhibition Constants, Stromelysin Ki
Source text: An inhibitor binds to MMP enzymes prevents the degradation of a substrate of stromelysin, gelatinase, or collagenase. The substrate is attached with a fluorescein and a biotin. The intact substrate then binds to an avidin-coated particle via the biotin moiety. Once the particle is washed and dried, a fluorescent signal is generated since the fluorescent group is attached to the particle. Without an inhibitor present, the substrate is degraded by MMP enzymes and the fluorescein group is removed, therefore, no fluorescent signal can be detected. […] Serial two-fold dilutions of each compound are prepared. A concentrated, activated enzyme solution is transferred into each plate of the testing compounds, and the mixture is incubated at room temperature for 15 minutes.

[2] = target: Gelatinase; test: MMP inhibition by particle concentration fluorescence technique (gelatinase); details: pH 7.5; 15 min enzyme preincubation; substrate 1-3 h at room temperature; read-out: MMP Inhibition Constants, Gelatinase Ki
Description: (§1) Inhibitory activity is evaluated in one or more of the MMP enzymes (stromelysin, gelatinase, and collagenase) in vitro using a particle concentration fluorescence techniques. An inhibitor binds to MMP enzymes prevents the degradation of a substrate of stromelysin, gelatinase, or collagenase. The substrate is attached with a fluorescein and a biotin. The intact substrate then binds to an avidin-coated particle via the biotin moiety. Once the particle is washed and dried, a fluorescent signal is generated since the fluorescent group is attached to the particle. Without an inhibitor present, the substrate is degraded by MMP enzymes and the fluorescein group is removed, therefore, no fluorescent signal can be detected. Testing compounds are dissolved in DMSO to the desired concentration, then the solutions are diluted to 1:5 with MMP buffer (50 mM Tris-HCl, pH 7.5; 150 mM NaCl; 0.02% NAN3). Serial two-fold dilutions of each compound are prepared. A concentrated, activated enzyme solution is transferred into each plate of the testing compounds, and the mixture is incubated at room temperature for 15 minutes. Thawed MMP substrate is then added into all plates, and the plates are incubate in the dark for 1-3 hours at room temperature. At this point, the substrate mixture is reacted with 0.1% avidin-coated polystyrene particles.

[3] = target: T1, Collagenase (Homo sapiens, UniProt P03956); test: MMP inhibition by particle concentration fluorescence technique (collagenase); details: pH 7.5; 15 min enzyme preincubation; substrate 1-3 h at room temperature; read-out: MMP Inhibition Constants, Collagenase Ki
T1 sequence (P03956 100-469): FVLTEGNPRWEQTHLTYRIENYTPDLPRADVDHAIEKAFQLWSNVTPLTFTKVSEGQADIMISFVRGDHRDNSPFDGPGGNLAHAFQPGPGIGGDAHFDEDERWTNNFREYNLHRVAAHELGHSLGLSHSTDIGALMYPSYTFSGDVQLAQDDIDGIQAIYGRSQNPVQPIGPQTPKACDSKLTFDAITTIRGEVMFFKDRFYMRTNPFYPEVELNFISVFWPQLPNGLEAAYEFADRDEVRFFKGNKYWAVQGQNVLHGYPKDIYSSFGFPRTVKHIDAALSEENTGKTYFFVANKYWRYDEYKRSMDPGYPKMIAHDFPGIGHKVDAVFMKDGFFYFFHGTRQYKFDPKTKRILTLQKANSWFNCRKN
Description: as §1

Stromelysin, sequence (P08254 100-477): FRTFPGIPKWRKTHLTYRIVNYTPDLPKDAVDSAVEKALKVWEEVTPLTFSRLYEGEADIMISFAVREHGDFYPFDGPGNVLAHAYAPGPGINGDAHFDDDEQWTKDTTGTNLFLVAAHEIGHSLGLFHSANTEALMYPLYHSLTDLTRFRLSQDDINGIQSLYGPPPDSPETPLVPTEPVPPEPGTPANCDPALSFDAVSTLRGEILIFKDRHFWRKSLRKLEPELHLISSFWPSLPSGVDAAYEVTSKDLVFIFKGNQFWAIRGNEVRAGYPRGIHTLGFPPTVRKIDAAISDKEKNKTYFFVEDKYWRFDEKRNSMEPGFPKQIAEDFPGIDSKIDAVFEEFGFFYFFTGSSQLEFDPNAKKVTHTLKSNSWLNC

| Ki [1] | Ki [2] | Ki [3] | Compound |
| --- | --- | --- | --- |
| 0.491 µM | 0.082 µM |  | CC(C)C[C@@]1([C@@H](CCN2C(=O)c3cc4ccccc4cc3C2=O)C(=O)NO)CCN(CCc2ccccc2)C1=O (relative stereo) [Example 6] |
| 1.27 µM | 1.42 µM |  | CC(C)C[C@@]1([C@@H](CCN2C(=O)c3c(F)c(F)c(F)c(F)c3C2=O)C(=O)NO)CCN(CCc2ccccc2)C1=O (relative stereo) [Example 7, N-Hydroxy-3-(2-methylpropyl)-2-oxo-1-(2-phenylethyl)-α-[2-(4,5,6,7-tetrafluoro-1,3-dihydro-1,3-dioxo-2H-isoindol-2-yl)ethyl]-3-pyrrolidineacetamide] |
| 1.14 µM | 0.734 µM |  | CC(C)C[C@@]1([C@@H](CCN2C(=O)c3cc(Cl)c(Cl)cc3C2=O)C(=O)NO)CCN(CCc2ccccc2)C1=O (relative stereo) [Example 8, α-[2-(5,6-Dichloro-1,3-dihydro-1,3-dioxo-2H-isoindol-2-yl)ethyl]-N-hydroxy-3-(2-methylpropyl)-2-oxo-1-(2-phenylethyl)-3-pyrrolidineacetamide] |
| 6.04 µM |  |  | CC(C)C[C@@]1([C@@H](CCN2C(=O)c3cccc([N+](=O)[O-])c3C2=O)C(=O)NO)CCN(CCc2ccccc2)C1=O (relative stereo) [Example 10, N-Hydroxy-3-(2-methylpropyl)-α-[2-(4-nitro-1,3-dihydro-1,3-dioxo-2H-isoindol-2-yl)ethyl]-2-oxo-1-(2-phenylethyl)-3-pyrrolidineacetamide] |
| 0.12 µM | 0.312 µM |  | CC(C)C[C@@]1([C@@H](CCN2C(=O)c3cccc(F)c3C2=O)C(=O)NO)CCN(CCc2ccccc2)C1=O (relative stereo) [Example 12, α-[2-(4-Fluoro-1,3-dihydro-1,3-dioxo-2H-isoindol-2-yl)ethyl]-N-hydroxy-3-(2-methylpropyl)-2-oxo-1-(2-phenylethyl)-3-pyrrolidineacetamide] |
| 0.334 µM | 0.28 µM |  | CC(C)C[C@@]1([C@@H](CCN2C(=O)c3c(F)ccc(F)c3C2=O)C(=O)NO)CCN(CCc2ccccc2)C1=O (relative stereo) [Example 13, α-[2-(4,7-Difluoro-1,3-dihydro-1,3-dioxo-2H-isoindol-2-yl)ethyl]-N-hydroxy-3-(2-methylpropyl)-2-oxo-1-(2-phenylethyl)-3-pyrrolidineacetamide] |
| 2.22 µM | 4.09 µM |  | CC(C)C[C@@]1([C@@H](CCSc2cccs2)C(=O)NO)CCN(CCc2ccccc2)C1=O (relative stereo) [Example 17, N-Hydroxy-3-(2-methylpropyl)-2-oxo-1-(2-phenylethyl)-α-[2-(2-thienylthio)ethyl]-3-pyrrolidineacetamide] |
| 1.47 µM | 3.04 µM |  | CC(C)C[C@@]1([C@@H](CCCSc2cccs2)C(=O)NO)CCN(CCc2ccccc2)C1=O (relative stereo) [Example 18] |
| 7 µM |  |  | CC(C)C[C@@]1([C@@H](CCN2C(=O)c3c(F)c(F)c(F)c(F)c3C2=O)C(=O)NO)CCN(Cc2ccccc2)C1=O (relative stereo) [Example 24, N-Hydroxy-3-(2-methylpropyl)-2-oxo-1-(phenylmethyl)-α-[2-(4,5,6,7-tetrafluoro-1,3-dihydro-1,3-dioxo-2H-isoindol-2-yl)ethyl]-3-pyrrolidineacetamide] |
| 0.713 µM | 0.998 µM |  | CNC(=O)CN1CC[C@@](CC(C)C)([C@@H](CCN2C(=O)c3ccccc3C2=O)C(=O)NO)C1=O (relative stereo) [Example 26, α^3-[2-(1,3-Dihydro-1,3-dioxo-2H-isoindol-2-yl)ethyl]-N^3-hydroxy-N^1-methyl-3-(2-methylpropyl)-2-oxo-1,3-pyrrolidinediacetamide] |
| 11 µM | 16.5 µM |  | CNC(=O)CN1CC[C@@](CC(C)C)([C@@H](CCN2C(=O)c3c(F)c(F)c(F)c(F)c3C2=O)C(=O)NO)C1=O (relative stereo) [Example 27, N^3 -Hydroxy-N^1-methyl-3-(2-methylpropyl)-2-oxo-α^3-[2-(4,5,6,7-tetrafluoro-1,3-dihydro-1,3-dioxo-2H-isoindol-2-yl)ethyl]-1,3-pyrrolidinediacetamide] |
| 0.194 µM |  | 1.2 µM | CCOC(=O)N(CC[C@@H](C(=O)NO)[C@]1(CC(C)C)CCN(CCc2ccccc2)C1=O)C(=O)OCc1ccccc1 (relative stereo) [Example 70, Ethyl Phenylmethyl[4-(hydroxyamino)-3-[3-(2-methylpropyl)-2-oxo-1-(2-phenylethyl)-3-pyrrolidinyl]-4-oxobutyl]imidodicarbonate] |
|  | 1.4 µM |  | CC(C)C[C@@]1([C@@H](CCNS(=O)(=O)c2ccc(F)cc2)C(=O)NO)CCN(CCc2ccccc2)C1=O (relative stereo) [Example 81, α-[2-[[(4-Fluorophenyl)sulfonyl]amino]ethyl]-N-hydroxy-3-(2-methylpropyl)-2-oxo-1-(2-phenylethyl)-3-pyrrolidineacetamide] |
| 0.116 µM | 0.031 µM |  | CC(C)C[C@@]1([C@@H](CCN2Cc3cc(F)c(F)cc3C2=O)C(=O)NO)CCN(CCc2ccccc2)C1=O (relative stereo) [Example 85, 5,6-Difluoro-1,3-dihydro-N-hydroxy-α-[3-(2-methylpropyl)-2-oxo-1-(2-phenylethyl)-3-pyrrolidinyl]-1-oxo-2H-isoindole-2-butanamide] |
| 2.77 µM | 2.47 µM |  | CC(C)CC1(C(CSc2cccs2)C(=O)NO)CCN(CCc2ccccc2)C1=O (stereo not drawn) [Example 19, N-Hydroxy-3-(2-methylpropyl)-2-oxo-1-(2-phenylethyl)-α-[2-(2-thienylthio)methyl]-3-pyrrolidineacetamide] |
|  |  | 0.031 µM | CNC(=O)[C@H](CC1CCCCC1)N1CC[C@](CC(=O)NO)(CC(C)C)C1=O [Example 33, [S-(R*,R*)]-α^1-(Cyclohexylmethyl)-N^3-hydroxy-N^1-methyl-3-(2-methylpropyl)-2-oxo-1,3-pyrrolidinediacetamide] |
| 3.12 µM |  |  | CC(C)CC1(CC(=O)NO)CC(=O)N(CCc2ccccc2)C1=O (centres unmarked) [Example 35, N-Hydroxy-3-(2-methylpropyl)-2,5-dioxo-1-(2-phenylethyl)-3-pyrrolidineacetamide] |
| 2.4 µM | 44 µM |  | CC(C)CC1(CC(=O)NO)C(=O)N(CCc2ccccc2)C(=O)N1C (centres unmarked) [Example 36, N-Hydroxy-3-methyl-4-(2-methylpropyl)-2,5-dioxo-1-(2-phenylethyl)-4-imidazolidineacetamide] |
| 4.74 µM |  |  | CC(C)CC1(CC(=O)NO)NC(=O)N(CCc2ccccc2)C1=O (centres unmarked) [Example 37, N-Hydroxy-4-(2-methylpropyl)-2,5-dioxo-1-(2-phenylethyl)-4-imidazolidineacetamide] |
| 0.023 µM | 0.0029 µM |  | CNC(=O)[C@H](Cc1ccccc1)N1CC[C@@](CC(C)C)([C@H](CCN2C(=O)c3ccccc3C2=O)C(=O)NO)C1=O [Example 58, [3S-[1(R*),3R*(R*)]]-α^3-[2-(1,3-Dihydro-1,3-dioxo-2H-isoindol-2-yl)ethyl]-N^3-hydroxy-N^1-methyl-3-(2-methylpropyl)-2-oxo-α^1-(phenylmethyl)-1,3-pyrrolidinediacetamide] |
|  |  | 0.098 µM | CC(C)C[C@@]1([C@H](CCN2C(=O)c3ccccc3C2=O)C(=O)NO)CCN(CCc2ccccc2)C1=O [Example 71, [S-(R*,R*)]-1,3-Dihydro-N-hydroxy-α-[3-(2-methylpropyl)-2-oxo-1-(2-phenylethyl)-3-pyrrolidinyl]-1,3-dioxo-2H-isoindole-2-butanamide] |
|  | 3 µM |  | CC(C)C[C@@]1([C@@H](CCNS(=O)(=O)c2ccc(F)cc2)C(=O)NO)CCN(CCc2ccccc2)C1=O [Example 84, [R-(R*,S*)]-α-[2-[[(4-Fluorophenyl)sulfonyl]amino]ethyl]-N-hydroxy-3-(2-methylpropyl)-2-oxo-1-(2-phenylethyl)-3-pyrrolidineacetamide] |
| 0.318 µM | 0.146 µM |  | CC(C)C[C@@]1([C@@H](CCN2Cc3cc(F)c(F)cc3C2=O)C(=O)NO)CCN(CCc2ccccc2)C1=O [Example 89, [R-(R*,S*)]-5,6-Difluoro-1,3-dihydro-N-hydroxy-α-[3-(2-methylpropyl)-2-oxo-1-(2-phenylethyl)-3-pyrrolidinyl]-1-oxo-2H-isoindole-2-butanamide] |
